Experimental data reported in patent publication US20250302817A1, “METHODS FOR TREATING PTEN-MUTANT TUMORS” (Icahn School of Medicine at Mount Sinai, priority 2016, published 2025).

Tests used:
[1] = tested on: Pten^−/− and WT MEFs; assay: Drug response assay (GI50 dose titration) in Pten WT and KO MEFs; format: cell-based, mouse; conditions: GI50 dose titration (FIG. 2A)
Experimental: FIG. 2F is a graph comparing various human breast cancer cell line growth rates. FIG. 2G is a series of immunoblots of pAKT in nuclear fractions of Pten^−/− and Pik3ca mutant MEFs. […] Data shown as mean+SD.
1500 cells per well (mouse cells) or 3000 cells per well (human cells) were plated in 96-well plates (Corning 720089). Growth rates were determined using the phase-confluency readings on an IncuCyte ZOOM (Essen Biosciences) on live cells over time.
Cells were plated in 96-well plates at a density of 1500 or 3000 cells per well. […] Sensitivity was determined by a dose-response titration for each cell line, with an equivalent amount of DMSO in each well. For cell death assays, DRAQ7™ (Cell Signaling 7406S) was added to the media at a 1:200 dilution and red fluorescence was measured in addition to phase in live-cell imaging to measure accumulation of dead cells. An IncuCyte ZOOM was used.

[2] = tested on: gamma-H2AX; assay: Gamma-H2AX measurement of DNA damage by flow cytometry; format: cell-based; conditions: 100 μM leflunomide 48 h or A771726
Experimental: (§1) FIG. 4A is a graph showing positively-stained cells labeled with a gamma-H2AX antibody; cells were analyzed by flow cytometry (Student's t-test, *p<0.05, n=3). […] The mean fluorescence intensity (MFI) was determined using flow cytometry (Student's t-test, *p<0.01, n=3). FIG. 4C is a series of representative photographs showing MEFs treated with 150 μM A771726 for 24 h and labeled with EdU and gamma-H2AX. Left: representative confocal microscopy images. Right: quantified EdU and gamma-H2AX colocalized foci (Student's t-test, *p<0.05, n=3). […] Left: representative confocal microscopy images. Right: quantification of the number of foci per cell (Student's t-test, p>0.05, n=6). FIG. 4E is a graph showing the percentage of cells treated with 150 μM A771726 for times indicated and labeled with antibodies to RPA and gamma-H2AX positively staining for RPA alone or both RPA and gamma-H2AX; cells were analyzed by flow cytometry (Student's t-test, *p<0.05, n=4). […] FIGS. 4G and 4H are graphs quantifying the number of chromosomal breaks and multiradial formations per haploid genome (Student's t-test, *p-values on figure, cells scored/replicate>100). […]
(§2) FIG. 10D is a bar graph showing a quantitative depiction of the percent cell area with EdU-staining from images in FIG. 4D, used to normalize foci to cell size (Student's t-test, p>0.05, not significant, n=6). […]

[3] = tested on: MCCL-357 and MCCL-278 cells; assay: Karyotyping (chromosomal analysis); format: cell-based, mouse; conditions: A771726, by 48 h; MCCL-357 compared to MCCL-278
Experimental: as §1, §2

[4] = cited from earlier work
[5] = healthy subjects; cited from earlier work
[6] = target: T1, CYP2C8 (Homo sapiens, UniProt P10632); conditions: repeated doses of teriflunomide, single dose of 0.25 mg repaglinide; cited from earlier work
T1 construct: host or cells: human subjects, in vivo
T1 sequence (P10632 whole entry): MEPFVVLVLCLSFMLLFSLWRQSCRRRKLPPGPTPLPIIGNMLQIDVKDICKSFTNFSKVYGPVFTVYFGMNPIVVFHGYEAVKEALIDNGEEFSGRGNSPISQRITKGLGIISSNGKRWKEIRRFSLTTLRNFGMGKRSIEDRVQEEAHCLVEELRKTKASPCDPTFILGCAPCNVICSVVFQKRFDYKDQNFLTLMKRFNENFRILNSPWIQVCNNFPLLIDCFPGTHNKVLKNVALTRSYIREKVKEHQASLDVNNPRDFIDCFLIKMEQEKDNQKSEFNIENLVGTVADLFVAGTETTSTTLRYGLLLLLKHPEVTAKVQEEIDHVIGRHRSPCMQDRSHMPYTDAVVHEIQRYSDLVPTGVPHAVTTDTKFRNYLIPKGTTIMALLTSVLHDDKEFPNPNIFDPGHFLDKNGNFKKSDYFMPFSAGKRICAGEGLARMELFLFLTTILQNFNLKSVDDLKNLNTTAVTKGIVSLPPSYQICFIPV

[7] = tested on: CYP1A2; conditions: repeated doses of teriflunomide; cited from earlier work
[8] = target: T2, organic anion transporter 3 (OAT3) (Homo sapiens, UniProt Q8TCC7); conditions: repeated doses of teriflunomide; cited from earlier work
T2 construct: host or cells: human subjects, in vivo
T2 sequence (Q8TCC7 whole entry): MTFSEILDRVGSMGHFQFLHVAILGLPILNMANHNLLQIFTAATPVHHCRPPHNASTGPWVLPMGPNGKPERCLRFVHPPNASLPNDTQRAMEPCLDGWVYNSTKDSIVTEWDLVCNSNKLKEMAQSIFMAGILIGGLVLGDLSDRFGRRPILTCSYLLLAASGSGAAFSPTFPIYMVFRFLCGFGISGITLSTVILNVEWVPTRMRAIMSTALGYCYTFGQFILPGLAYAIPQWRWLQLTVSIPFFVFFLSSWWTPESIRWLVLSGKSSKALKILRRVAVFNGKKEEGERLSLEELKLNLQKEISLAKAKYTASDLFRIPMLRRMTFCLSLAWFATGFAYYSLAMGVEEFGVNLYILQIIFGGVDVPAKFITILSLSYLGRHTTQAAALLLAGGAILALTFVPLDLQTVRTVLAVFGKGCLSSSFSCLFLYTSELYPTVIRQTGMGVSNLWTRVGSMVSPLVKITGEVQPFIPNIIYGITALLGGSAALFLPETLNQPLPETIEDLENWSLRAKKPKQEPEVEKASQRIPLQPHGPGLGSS

[9] = repeated doses of teriflunomide; cited from earlier work
[10] = target: T3, CYP3A4 (Homo sapiens, UniProt P08684); conditions: in vivo; cited from earlier work
T3 construct: midazolam (a CYP3A4 substrate); host or cells: human subjects, in vivo
T3 sequence (P08684 whole entry): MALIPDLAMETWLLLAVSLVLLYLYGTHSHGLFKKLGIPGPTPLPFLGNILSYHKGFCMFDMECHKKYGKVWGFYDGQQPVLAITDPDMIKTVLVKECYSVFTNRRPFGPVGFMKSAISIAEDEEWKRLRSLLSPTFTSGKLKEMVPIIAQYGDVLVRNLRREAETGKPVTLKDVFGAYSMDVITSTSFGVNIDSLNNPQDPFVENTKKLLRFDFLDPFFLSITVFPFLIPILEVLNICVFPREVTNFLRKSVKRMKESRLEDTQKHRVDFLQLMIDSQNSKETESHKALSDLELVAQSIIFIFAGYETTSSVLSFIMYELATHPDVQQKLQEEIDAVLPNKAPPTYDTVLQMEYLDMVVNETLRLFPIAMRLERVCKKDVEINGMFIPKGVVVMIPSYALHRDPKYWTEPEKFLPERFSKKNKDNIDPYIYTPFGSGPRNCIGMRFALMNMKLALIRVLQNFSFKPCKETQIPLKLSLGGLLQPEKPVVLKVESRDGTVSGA

[11] = target: T4, CYP2C19 (Homo sapiens, UniProt P33261); conditions: in vivo; cited from earlier work
T4 construct: omeprazole (a CYP2C19 substrate); host or cells: human subjects, in vivo
T4 sequence (P33261 whole entry): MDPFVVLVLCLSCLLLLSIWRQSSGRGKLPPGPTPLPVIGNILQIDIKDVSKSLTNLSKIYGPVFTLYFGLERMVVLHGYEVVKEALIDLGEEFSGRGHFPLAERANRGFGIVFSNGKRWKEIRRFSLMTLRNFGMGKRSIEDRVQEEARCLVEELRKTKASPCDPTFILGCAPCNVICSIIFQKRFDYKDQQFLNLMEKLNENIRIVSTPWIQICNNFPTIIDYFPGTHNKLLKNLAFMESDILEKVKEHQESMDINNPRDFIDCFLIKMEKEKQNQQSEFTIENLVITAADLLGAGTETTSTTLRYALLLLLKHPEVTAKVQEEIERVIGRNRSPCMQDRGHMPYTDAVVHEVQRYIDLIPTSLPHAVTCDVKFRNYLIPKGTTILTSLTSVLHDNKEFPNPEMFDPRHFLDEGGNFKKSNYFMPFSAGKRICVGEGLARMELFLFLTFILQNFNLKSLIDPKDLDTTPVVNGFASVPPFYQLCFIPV

[12] = in vivo; cited from earlier work

## C/C(O)=C(\C#N)C(=O)Nc1ccc(C(F)(F)F)cc1 [teriflunomide, (Z)-2-Cyano-3-hydroxy-but-2-enoic acid-(4trifluoromethylphenyl)-amide]
[1]
  sensitivity of Pten^−/− MEFs compared with WT MEFs: more sensitive
[2]
  DNA damage (gamma-H2AX) in PTEN-deficient versus WT cells: augmented DNA damage to a significantly greater degree in PTEN-deficient cells
[3]
  chromosome gaps, breaks, and multiradial formations: greater number of chromosome gaps, breaks, and multiradial formations in MCCL-357 cells
[4]; patients with chronic renal insufficiency on CAPD or hemodialysis
  free fraction of teriflunomide: almost doubled
[4]; single dose, patients (n=6) with chronic renal insufficiency
  impact of CAPD or hemodialysis on circulating levels of teriflunomide: neither had a significant impact
[5]
  QT interval prolongation: no evidence that teriflunomide caused QT interval prolongation of clinical significance
  upper bound of the 90% confidence interval for the largest placebo-adjusted, baseline-corrected QTc: below 10 ms
[6]
  increase in mean repaglinide AUC: 2.4 fold
  increase in mean repaglinide Cmax: 1.7 fold
[7]
  decrease in mean AUC of caffeine: 55%
  decrease in mean Cmax of caffeine: 18%
[8]
  increase in mean cefaclor AUC: 1.54 fold
  increase in mean cefaclor Cmax: 1.43 fold
[9]
  increase in mean ethinylestradiol AUC 0-24: 1.54 fold
  increase in mean ethinylestradiol Cmax: 1.58 fold
  increase in mean levonorgestrel AUC 0-24: 1.41 fold
  increase in mean levonorgestrel Cmax: 1.33 fold
[10]
  effect on pharmacokinetics of midazolam (a CYP3A4 substrate): does not affect the pharmacokinetics
[11]
  effect on pharmacokinetics of omeprazole (a CYP2C19 substrate): does not affect the pharmacokinetics
[12]
  effect of rifampin on the pharmacokinetics of teriflunomide: does not affect the pharmacokinetics
